Results: US11459311B2, “Pharmaceutical composition containing indirubin derivative as active ingredient” (CK Regeon Inc., priority 2017, dated 2022)
Where two headings read alike, the source gives them in different places.

What was measured:
[1] = test system: ATDC5 cells (chondrocytes); assay: MTT reduction analysis; assay type: cell-based, Murine; details: 24 hours treatment
Description: (§1) The ATDC5 cell (Murine constant cell line) was cultured in the DMEM (Dulbecco's modified Eagle's medium, Gibco, Grand Island, N.Y.) containing 5% Fetal Bovine Serum (FBS) and 1% penicillin/streptomycin under conditions of 37° C. and 5% CO2.
When the cells were stably attached after 5×10^3 ATDC5 cells were stuck in 96 well plate, the drug (here is 6-bromoindirubin-3′-oxime) was treated. After 24 hours, transfer to a medium containing 100 μg/ml MTT [3-(4,5-dimethylthiazol-2-yl)-2,5-diphenyletrazoliumbromide)] and incubate the cells for 2 hours before removing the growth medium. The MTT, which was reduced to purple formazan, was dissolved with DMSO and then excreted at 540 nm by ab absorbance measurement.
FIG. 3B is a graph of MTT reduction analysis of chondrocytes after treatment of different concentration of 6-bromoindirubin-3′-oxime to confirm if the reduction in the length of longitudinal bone treated with 6-bromoindirubin-3′-oxime in Comparative Example 6 is related to the effect on the survival rate of chondrocytes.
MTT reduction assay is a method to measure the viability of cells by analyzing the difference in absorbance due to the reduction of yellow MTT to purple formazan caused by mitochondrial enzyme reaction in living cells.

[2] = test system: longitudinal bone; assay: ex-vivo longitudinal bone culture, length measurement; assay type: cell-based, C57BL/6 mice; details: for length of the longitudinal bone increased more effectively than by comparative indirubin derivatives: versus Comparative Examples 8, 9 and 10-12; for increase of the length of the long bone relative to the control group: printed as about two times (180%)
Description: Longitudinal bones were isolated from 15.5 embryonic day C57BL/6 mice and incubated for 7 days in a 24-well tissue culture dish. Medium was used as Minimal Essential Medim (α-MEM, Gibco) including 10% fetal bovine serum (FBS), 1 mM beta polyglycerol disodium phosphate, 50 ng/ml ascorbic acid, 0.3 g/L-glutamine, 0.2% BSA, 100 U/ml penicillin, 100 μg/ml streptomycin. After the longitudinal bone was separated from the mouse, the longitudinal bone isolated from the medium was incubated for 24 hours, and the drug was treated. The medium and the drug (here are Example 1, Example 2, Comparative Examples 1, 7-9 and indirubin derivatives of 10-12) were changed every other day. The length of the longitudinal bone was measured before and after treatment with the drug. The longitudinal bone tissue after drug treatment was marched with PBS and fixed using 4% formaldehyde.
In order to more precisely determine the effect of indirubin derivatives in Example 1 or Example 2 of the present invention and other indirubin derivatives on the culture of ex-vivo longintudinal bone, various indirubin derivatives (Examples 1 and 2 and comparison Example 1, 8, 9, 10-12 indirubin derivatives) were treated as in Experimental Method 6, and the length of the longitudinal bone was measured.
FIG. 1 is a photograph of the longitudinal bone cultured at each ex-vivo when treated with indirubin induction in Example 1, Example 2, and Comparison Example 1, 8, 9, 10-12. FIG. 2 is a graph and table showing the variation in the length of the longitudinal bone measured in FIG. 1. In this case, the drooping indirubin derivatives were identical at 0.5 μM and treated in culture medium for 6 days.
We sought to determine more accurately the effect of 6-bromoindirubin-3′-oxime (Comparative Example 6) on the culture of ex-vivo longitudinal bone. FIG. 3A is a photograph (left) of a longitudinal bone culture in ex-vivo and a graph showing the numerical value when treated with 6-bromoindirubin-3′-oxime of Comparative Example 6 (right). At that time, 0.5 μM 6-bromoindirubin-3′-oxime was treated in culture medium for 6 days. The control is longitudinal bone treated with DMSO solution instead of drug.

[3] = test system: ALP (alkaline phosphatase); assay: ALP activity assay in MC3T3-E1 cells; assay type: cell-based, Mouse; details: for increase of ALP activity: MC3T3-E1 cells, differentiation medium, 48 hours, versus control
Description: (§2) The MC3T3-E1 cell (Mouse osteoblastic cell line) was cultivated under conditions of 37° C. and 5% CO2 at the minimal essential media (α-MEM) (Gibco) containing 10% prenatal serum and 1% penicillin/streptomycin. For the test of differentiation induction, cells were cultivated in α-MEM mediums containing 50 μg/ml ascorbic acid and 100 mM β-glycerophosphate.
5×10^4 MC3T3-E1 cells were incubated on a 24 well plate for two days and stuck. After confirming that the cells reached 100% confluency, the medications (5,6-dichloroindirubin-3′-methoxime in Example 1) were treated in the differentiation medium for 48 hours. The cells were cleaned with a phosphoric acid buffer solution and the samples harvested were treated with a buffer solution (pH 10.3) containing 50 mM Tris-chloric acid, 100 mM glisin and p-nitro phenylpospate after cell lysis. For analysis, 3 M sodium hydroxide was treated, and absorbance was measured at 405 nm. The ALP activity was quantified by measuring the protein concentration using Bradford Analyzer.
ALP activity analysis was performed as Experimental Method 5 to determine the effect of 5,6-dichloroindirubin-3′-methoxime in Example 1 and 5-methoxylindirubin-3′-oxime in Example 2 on bone mineral density. FIG. 4 is a table showing the measured a graph showing ALP activity in cells and a table showing the degree of ALP activity in cells treated with 5,6-dichloroindirubin-3′-methoxime of Example 1 according to the present invention, 5-methoxylindirubin-3′-oxime of Example 2, indirubin derivatives of Comparative Examples 1-5 and 12. The control is the ALP activity in the cells prior to drug treatment.

[4] = oral toxicity study in mouse; details: in vivo
Description: When an indirubin derivative represented by Formula 1 (5,6-dichloroindirubin-3′-methoxime) and an indirubin derivative represented by Formula 2 (5-methoxylindirubin-3′-oxime) were orally administered to a mouse for toxicity studies, they are considered to be safe substances because the 50% lethal dose (LD 50) of them are at least 1,000 mg/kg.

[5] = test system: osteoblasts and chondrocytes; assay: toxicity to osteoblasts and chondrocytes; assay type: cell-based
[6] = test system: β-catenin; assay: Western blot for β-catenin stabilization in MC3T3-E1 cells; assay type: cell-based, Mouse; details: 24 hours treatment
Description: as §2
For Western blot analysis, drugs (here are 5,6-dichloroindirubin-3′-methoxime, 5-methoxylindirubin-3′-oxime) were treated 24 hours, and MC3T3-E1 cells were cultured and harvested in a culture dish to reach 100% confluency. Harvested samples for immunoblot was performed to quantify the protein was after cell lysis, using SDA-PAGE gel using the antibody after electrophoresis.
FIG. 5 is the result of Western blot using MC3T3-E1 cells (osteoblast cells) to confirm the effects of 5,6-dichloroindirubin-3′-methoxime of Example 1 and 5-methoxyindirubin-3′-oxime of Example 2 on the stability of β-catenin.

[7] = test system: β-catenin; assay: Immunocytochemistry of β-catenin expression and localization in ATDC5 cells; assay type: cell-based, Murine; details: 24 hours treatment, ICC
Description: as §1
Drugs (here are 5,6-dichloroindirubin-3′-methoxime, 5-methoxylindirubin-3′-oxime) were treated for 24 hours when the cells were securely attached to the cover glass that was placed in the 12 well plate at a density of 2.5×10^4 cells per well. Cells were cleaned with phosphoric acid buffer solution and fixed at room temperature for 20 minutes by adding 4% paraformaldehyde, and then a protein expressed in the cells was observed through the process of permeabilization, blocking and immunofluorescence.
FIG. 6 is a photograph confirming the β-catenin concentration in the ATDC5 cells treated with 5,6-dichloroindirubin-3′-methoxime of Example 1 and 5-methoxylindirubin-3′-oxime of Example 2 by immunocytochemistry. In other words, the expression and localization of β-catenin in ATDC5 cells were confirmed through ICC.

[8] = 0.5 μM, 6 days in culture medium

concentration at which growth of chondrocytes is inhibited [1] [µM]	Compound	survival rate of chondrocytes ([1]; 5 μM)	length of the ex-vivo longitudinal bone compared to control group ([2]; 0.5 μM, 6 days in culture medium, control DMSO)	increase of ALP activity [3] [fold]	LD50 ([4]; orally administered, read-out: 50% lethal dose (LD 50)) [mg/kg]	toxicity to osteoblasts and chondrocytes [5]	stabilization of β-catenin [6]	movement of stabilized β-catenin into the nucleus [7]	length of the longitudinal bone increased more effectively than by comparative indirubin derivatives [2, 8]	increase of the length of the long bone relative to the control group [2] [%]	effects on bone growth, bone thickness or both more significant than those of other indirubin derivatives ([3]; versus other indirubin derivatives, test not specified)	LD50 [4] [mg/kg]
≥ 1	O=C1Nc2cc(Br)ccc2/C1=C1/Nc2ccccc2/C1=N\O [Comparative Example 6, 6-bromoindirubin-3′-oxime]	below 50%	reduced	–	–	–	–	–	–	–	–	–
–	CO/N=C1/C(=C2/C(=O)Nc3cc(Cl)c(Cl)cc32)Nc2ccccc21 [Example 1, 5,6-dichloroindirubin-3′-methoxime]	–	–	~2	≥ 1000	not toxic	significantly induced the stabilization of β-catenin	increase the mobility of the stabilized β-catenin into the nucleus	about 54%	~180	–	–
–	COc1ccc2c(c1)/C(=C1/Nc3ccccc3/C1=N\O)C(=O)N2 [Example 2, 5-methoxylindirubin-3′-oxime]	–	–	~2	–	not toxic	significantly induced the stabilization of β-catenin	increase the mobility of the stabilized β-catenin into the nucleus	about 54%	~180	more than 30%	≥ 1000
